Test results: patent US9988635B2, “Modulation of growth hormone receptor expression and insulin-like growth factor expression” (Antisense Therapeutics Limited, priority 2003, dated 2018)
In the oligonucleotide strings, read from the 5' end, every base follows the letter of its sugar. An asterisk marks phosphorothioate; unmarked linkages are phosphodiester. Other units and linkages are bracketed, terminal groups are in braces. A string of capitals states the bases alone. e = 2'-O-(2-methoxyethyl) (MOE); [5mC] = 5-methylcytosine; d = 2'-deoxy (DNA)

Experiments:
[1] = cited from earlier work
[2] = system: serum IGF-I; conditions: animal models; decreased tumor volume in breast cancer; cited from earlier work
[3] = system: growth hormone receptor; assay: [125I] hGH specific binding assay on liver microsomal membranes of treated mice; type: in vivo, mouse
Experimental: Specific binding assays were carried out with liver tissue using iodinated human growth hormone [^125I] hGH.
Microsomal membrane preparations were obtained as follows. 400 mg of tissue powder was homogenized in cold homogenizing buffer (50 mM Tris/HCl, 250 mM sucrose, pH 7.4). This was centrifuged at 2000 rpm for 10 min at 3° C. and the supernatant was saved. This was centrifuged again at 15,000 rpm for 20 min. Pellets were resuspended in 0.5 ml of RRA buffer with inhibitor (50 mM Tris, 20 mM MgCl2, pH 7.4). Microsomal preparation samples were stored at −80° C. until the specific binding assay.
The [^125I] hGH specific binding assay was done as follows. Four glass tubes were set up for each sample, two for (−), two for (+). Different sample and solutions were added in each tube as follows (i) 0.2 ml RRA buffer (50 mM Tris, 20 mM MgCl2, 0.1% BSA, pH 7.4); (ii) 0.1 ml membrane (½ or ¼ dilution); (iii) 0.1 ml bGH (10 μg/ml) for the (+) tube or 0.1 ml RRA buffer for the (−) tube; and (iv) 0.1 ml [^125I]-hGH tracer.
Samples were incubated at 4° C. with shaking overnight. The reaction was stopped with 2.5 ml of cold RRA, and the sample centrifuged at 2800 rpm for 25 min at 4° C. Supernatant was aspirated and pellets counted using the γ-counter. The specific binding capacity was calculated as: CPM(−)-CPM(+). Protein content of the microsomal samples was determined by the BCA protein assay.

[4] = system: growth hormone receptor mRNA; assay: Growth hormone receptor mRNA levels in liver, 2 week study; type: in vivo, mouse; conditions: 30 mg/kg; two-week study
Experimental: (§1) A two-week study was done in similar fashion to the one-week study in Example 18, this time using ISIS 227446 at doses of 3, 5, 10, 20 and 30 mg/kg. The mismatch control was given at the same doses. Mice were treated with antisense compound or saline every other day for 14 days.
Growth hormone receptor mRNA levels in liver tissue samples from treated and untreated mice in this two-week study were assayed. The growth hormone receptor antisense inhibitor ISIS 227446 reduced growth hormone receptor mRNA levels in liver after the two-week study by 50% at the 20 mg/kg dose relative to saline control (p<0.001). The 30 mg/kg dose of ISIS 227446 yielded a 53% decrease in growth hormone receptor mRNA (p<0.0001). The mismatch control oligonucleotide ISIS 261303 (SEQ ID NO: 267), at 30 mg/kg, reduced growth hormone receptor mRNA levels by approximately 3%.

[5] = system: serum insulin-like growth factor-I; assay: Serum IGF-I by radioimmunoassay, 1 week pilot study in Balb/C(a) mice; type: in vivo, mouse
Experimental: Forty male Balb/C(a) mice weighing 9 to […] were placed into cages, 4 animals per cage, and allowed to assimilate into their environment with new littermates ˜1 week prior (Day −7) to the commencement of 1 week study. Mice of this age would be at their maximum growth rate. Their body weights were measured and recorded every second day during this period. When mice weighed 11 g (day −2), a blood sample was collected under anesthesia as described below, and a serum IGF-I assay was performed to determine pre-treatment values and to aid in the assigning of mice to treatment groups in order to reduce animal variability. To obtain the blood sample, the animals were anaesthetized with pentobarbital (50 mg/kg i.p.) and non-fasting blood samples collected exactly 5 minutes later from the retrobulbar plexus through heparinized capillary tubes under light ether anesthesia. The 40 animals were placed into five groups with each group having a similar weight average and similar IGF-I average concentration for the trial.
Animals (n=8/group) were designated to the following five treatment groups:
(§2) Saline, antisense, mismatch control and octreotide samples were prepared, and coded for blinding. Animals were given a subcutaneous dose of saline every second day, and mismatch control or antisense with administration on days 0, 2, 4, 6. Animals were given twice daily doses of 25 μg octreotide. Animals were housed 4 per cage, for the duration of one week. They had access to a pre-determined quantity of standard mouse food and water at all times throughout the experiment. They were housed in a quiet, temperature- and humidity-maintained environment for the entirety of the study. At day 0 and before treatment on each day or second day, the animals had their body weight and food intake measured, enabling the correct dose of agent to be administered. The animals were monitored closely for any changes in fur, skin, eye, locomotion or other changes in behavior. No problems were observed. Every second day from day −7 to day 7 body weight and food intake were measured.
On day 7, one day after the last dose of antisense, and/or after the last octreotide dose, the animals were anaesthetized with pentobarbital (50 mg/kg i.p.) and non-fasting blood samples collected exactly 5 minutes later from the retrobulbar plexus through heparinized capillary tubes under light ether anesthesia (as on day −7 and 0).
At day −2 and day 7, serum IGF-I measurement was done by radioimmunoassay. Serum IGF-I level is the most widely used measure of growth hormone biological activity in human therapy. It is used to measure the efficacy of growth hormone antagonist treatments like Trovert, which block cells' responsiveness to excess growth hormone, and dopamine agonists and octreotide somatostatin […] drugs that block growth hormone secretion from the pituitary.

[6] = Body weight, body length, organ weights and food intake, 1 week pilot study; type: in vivo, mouse; conditions: 30 mg/kg every second day
Experimental: as §2
The serum remaining following the insulin-like growth factor-1 assay was isolated and stored at −80° C. The whole liver was removed rapidly for weighing and snap-frozen in labelled aluminum parcels by submersion in liquid-nitrogen. […]
This confirms published results of others. […] Weight was measured in two ways: weight trend (live animal), and final carcass weight. […]

[7] = system: serum IGF-I; assay: Serum IGF-I, 2 week study in mice; type: in vivo, mouse; conditions: 3 mg/kg; equivalent to saline (untreated) control (separate experiment)
Experimental: as §1
P-values were determined by t-test.

[8] = liver microsomal membranes, 30 mg/kg every second day for one week
[9] = 30 mg/kg s.c. once every 2 days, 1 week
[10] = 30 mg/kg every second day for one week
[11] = 30 mg/kg s.c. every second day for one week

Pegvisomant [Trovert]
drop-out rate ([1]; clinical trial experience): 10%
serum insulin-like growth factor-I levels reduced by ([1]; human therapeutic Trovert doses, 12 week and greater than 1 year studies): 50%
antibodies being made to Trovert, time of dosing ([1]; immunogenicity): ≤ 1 month
effective in % of patients ([1]; patients with acromegaly): 90-95%
reduction of serum IGF-I [2]: 20-50%

ISIS 261303: negative control oligonucleotide, 8-base mismatch to ISIS 227446 (DNA AGAGAGCTACCTAACTAACA; chemistry not given here) [reference compound]
effect on growth hormone receptor levels compared to the control saline group ([3]; 30 mg/kg): no effect
Specific binding/mg protein (cpm) ¼ dilution [3, 8]: 8431 ± 2663 cpm
Specific binding/mg protein (cpm) ½ dilution [3, 8]: 7090 ± 1877 cpm
reduction of growth hormone receptor mRNA levels in liver [4]: approximately 3%
% IGF-I reduction at day 7 compared to saline control at day 7 [5, 9]: 21%
IGF-I (ng/ml) Day 7 [5, 9]: 81.1 ± 19.16 ng/mL
% IGF-I reduction at day 7 compared to saline control at day 7 ([5]; 30 mg/kg s.c. once every 2 days, 1 week, listed as Mismatch): 20.98%
IGF-I (ng/ml) Day −2 ([5]; pre-treatment value, 30 mg/kg once every 2 days group): 184.87 ± 55.6 ng/mL

acaaagatccatacctgaga (eA*e[5mC]*eA*eA*eA*dG*dA*dT*d[5mC]*d[5mC]*dA*dT*dA*d[5mC]*d[5mC]*eT*eG*eA*eG*eA; antisense) [ISIS 227446]
reduction of specific binding compared to saline, ¼ dilution [3, 10]: 39%
reduction of specific binding compared to saline, ½ dilution [3, 10]: 26%
growth hormone receptor levels (growth hormone binding activity) as % of control (saline) group [3, 11]: 61%
growth hormone receptor levels as % of the control (mismatch) group ([3]; ½ dilution experiment, 30 mg/kg): 59%
influence on body weight or organ weights [6]: not sufficient to influence body weight or organ weights
effect on serum IGF-I levels [7]: no effect
reduction of growth hormone receptor mRNA levels in liver [4]: 53%
serum IGF-I as % of the control (saline) group [5, 11]: 55%
% IGF-I reduction at day 7 compared to saline control at day 7 [5, 9]: 45%
% IGF-I reduction at day 7 compared to saline control at day 7 ([5]; 30 mg/kg s.c. once every 2 days, 1 week, listed as ASO): 44.51%
